Test results published in PubChem BioAssay (NCI).
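Step 1: Grow cells in 96-well plates. Step 2: Expose to compound for 48 hours at 5 concentrations. Step 3: Interpolate endpoints linearly; if unreached, use highest concentration. GI50: concentration for 50% inhibition of growth. TGI denotes the concentration required for complete inhibition of growth.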

Columns and labels:
Assay in all cases: NCI anticancer screen, dose series, 48 h
[1] = tested on: 786-0 renal
[2] = tested on: A498 renal
[3] = tested on: A549 NSCLC
[4] = tested on: ACHN renal
[5] = tested on: BT-549 breast
[6] = tested on: CAKI-1 renal
[7] = tested on: CCRF-CEM leukemia
[8] = tested on: DU-145 prostate
[9] = tested on: EKVX NSCLC
[10] = tested on: HCC-2998 colon
[11] = tested on: HCT-15 colon
[12] = tested on: HL-60(TB) leukemia
[13] = tested on: HOP-92 NSCLC
[14] = tested on: HS 578T breast
[15] = tested on: IGROV1 ovarian
[16] = tested on: K-562 leukemia
[17] = tested on: KM12 colon
[18] = tested on: LOX IMVI melanoma
[19] = tested on: M14 melanoma
[20] = tested on: MCF7 breast
[21] = tested on: MDA-MB-231 breast
[22] = tested on: MDA-MB-435
[23] = tested on: MOLT-4 leukemia

Structure (SMILES): C(#Cc1cnccn1)/C=C\C#Cc1cnccn1
- GI50 [1]: 10.7 µM
- TGI [1]: 29 µM
- GI50 [2]: 27.8 µM
- TGI [2]: 50.7 µM
- GI50 [3]: 15.6 µM
- TGI [3]: 42.2 µM
- GI50 [4]: 16 µM
- TGI [4]: 40 µM
- GI50 [5]: 12 µM
- TGI [5]: 37.4 µM
- GI50 [6]: 2140 nM
- TGI [6]: 6.92 µM
- GI50 [7]: 2670 nM
- TGI [7]: > 100 µM
- GI50 [8]: 19.2 µM
- TGI [8]: 72 µM
- GI50 [9]: 3.69 µM
- TGI [9]: 16 µM
- GI50 [10]: 3.63 µM
- TGI [10]: 11.5 µM
- GI50 [11]: 2740 nM
- TGI [11]: 10.6 µM
- GI50 [12]: 24.1 µM
- TGI [12]: > 100 µM
- GI50 [13]: 31.1 µM
- TGI [13]: 83.9 µM
- GI50 [14]: 31.6 µM
- TGI [14]: > 100 µM
- GI50 [15]: 33.1 µM
- TGI [15]: > 100 µM
- GI50 [16]: 4.18 µM
- TGI [16]: > 100 µM
- GI50 [17]: 3.43 µM
- TGI [17]: 22.4 µM
- GI50 [18]: 1650 nM
- TGI [18]: 10.5 µM
- GI50 [19]: 1720 nM
- TGI [19]: 3.86 µM
- GI50 [20]: 14.1 µM
- TGI [20]: > 100 µM
- GI50 [21]: 4.4 µM
- TGI [21]: 20.7 µM
- GI50 [22]: 7.72 µM
- TGI [22]: 33.1 µM
- GI50 [23]: 11.4 µM
